Literature values as cited in patent US20260137642A1 (CANCER PREVENTION PHARMACEUTICALS, INC., priority 2021, published 2026).

What was measured:
[1] = in vivo; cited from earlier work
[2] = phase II study; cited from earlier work
[3] = cited from earlier work
[4] = cited from earlier work; remark: listed apart in the source

In the case of `Cc1ccc(-c2cc(C(F)(F)F)nn2-c2ccc(S(N)(=O)=O)cc2)cc1` [Celecoxib, 4-[5-(4-Methylphenyl)-3-(trifluoromethyl)pyrazol-1-yl]benzenesulfonamide], the “Increase in rates of heart and blood vessel disease” value [1] is given as 30% and the “Risk of gastrointestinal side effects” value [1] is given as “greater than 80%”.

For `CCNCCCNCCCNCCCNCC` [DENSPM], the Tolerability [2] is given as “well-tolerated”.

For `CC1=C(CC(=O)O)c2cc(F)ccc2/C1=C\c1ccc([S+](C)[O-])cc1` (centres unmarked) [Sulindac, (Z)-5-fluoro-2-methyl-1-((4-(methylsulfinyl)phenyl)methylene)-1H-indene-3-acetic acid], the “Fraction of the drug absorbed” value ([3]; after oral administration) is listed as “about 90%”, the “Time to peak plasma levels” value ([3]; fasting patients) is listed as “about 2 hours” and the “Patients with mild gastrointestinal effects” value ([4]; abdominal pain and nausea most frequent) is listed as ~20%. The “Patients with skin rash and pruritus” value ([4]; human, in vivo) was 5%.

For `CSc1ccc(/C=C2/C(C)=C(CC(=O)O)c3cc(F)ccc32)cc1` [sulfide metabolite], the Mean half-life ([3]; in vivo) is listed as 16.4 h.
